Tests used:
DENV4 NS2B-NS3pro [1] = biological target: T1, DENV4 NS2B-NS3pro (Dengue virus type 4, UniProt Q2YHF0, DELINS1442-1474GGGGSGGGG); assay: In vitro inhibition assay of recombinant NS2B-NS3pro with fluorogenic AMC peptide substrate; assay type: biochemical, dengue virus type 4 (DENV4); conditions: for Inhibition Activity: primary inhibition assay at a 100 μM concentration of inhibitors, Table S1; for Inhibition: inhibition activity at 100 μM, 1.65 µM AMC peptide substrate, Table 2
DENV4 NS2B-NS3pro [2] = biological target: T1, DENV4 NS2B-NS3pro; assay: Inhibitor enzyme kinetics (Lineweaver-Burk and Dixon plots) against NS2B-NS3pro; assay type: biochemical, dengue virus type 4 (DENV4); conditions: AMC peptide substrates
Procedure: Inhibitory kinetic experiments were performed at different constant inhibitor concentrations and different substrate concentrations. Lineweaver–Burk and Dixon plots were used to analyze the inhibition modes of these compounds. Ki values were calculated from the Dixon plots.
The type of inhibition was determined using Lineweaver–Burk plots, and Ki values were determined with a Dixon plot (1/v as a function of [I], inhibitor concentration) from different inhibitor concentrations.

T1 sequence (Q2YHF0 1475-1660, added parts left off, stated change not applied): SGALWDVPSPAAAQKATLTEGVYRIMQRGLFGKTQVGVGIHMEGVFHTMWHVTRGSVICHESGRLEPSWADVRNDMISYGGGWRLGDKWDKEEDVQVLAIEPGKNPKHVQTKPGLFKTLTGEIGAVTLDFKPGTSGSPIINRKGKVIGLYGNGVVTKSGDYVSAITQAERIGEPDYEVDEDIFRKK

Molecule | Inhibition Activity (DENV4 NS2B-NS3pro [1]) [%] | Inhibition mode (DENV4 NS2B-NS3pro [2]) | Inhibition (DENV4 NS2B-NS3pro [1]) [%]
N-(1-benzyl-1H-benzo[d]imidazol-2-yl)-5-((3-nitro-1H-1,2,4-triazol-1-yl)methyl)furan-2-carboxamide [Compound 32] | 45.55 | – | –
O=C1c2ccccc2C(=O)N1c1cccc(-c2csc(N3N=C(c4ccccc4)CC3c3ccccc3)n2)c1 (stereo not drawn) [Compound 21, 2-(3-(2-(3,5-diphenyl-4,5-dihydro-1H-pyrazol-1-yl)thiazol-4-yl)phenyl)isoindoline-1,3-dione] | 21.27 | – | –
1-(5-(4-(4-(5-chloro-2-methylphenyl)piperazine-1-carbonyl)piperidin-1-yl)-1,3,4-thiadiazol-2-yl)pyrrolidin-2-one [Compound 18] | 0.15 | – | –
Cc1nc2sc(C(=O)c3ccc(-c4ccc(C(=O)c5sc6nc(C)c(C)c(C)c6c5N)cc4)cc3)c(N)c2c(C)c1C [Compound 10, [1,1'-biphenyl]-4,4'-diylbis((3-amino-4,5,6-trimethylthieno[2,3-b]pyridin-2-yl)methanone)] | 7.59 | – | –
Cc1cccc(C)c1-n1c(SCc2cc(=O)n3cc(Cl)ccc3n2)nc2c(sc(=S)n2-c2c(C)cccc2C)c1=O [Compound 22, 5-[[(7-chloro-4-oxo-4H-pyrido[1,2-a]pyrimidin-2-yl)methyl)sulfanyl)-3,6-bis(2,6-dimethylphenyl)-2-thioxo-2,3-dihydro[1,3]thiazolo[4,5-d]pyrimidin-7(6H)-one] | 91.65 | competitive inhibitors | –
N-(3-(4-cyclohexylpiperazin-1-yl)propyl)-1-(5-(2-oxopyrrolidin-1-yl)-1,3,4-thiadiazol-2-yl)piperidine-3-carboxamide [Compound 23] | 17.71 | – | –
3-(((1-methyl-1H-tetrazol-5-yl)thio)methyl)-7-(2-(5-methyl-4-nitro-1H-pyrazol-1-yl)acetamido)-8-oxo-5-thia-1-azabicyclo[4.2.0]oct-2-ene-2-carboxylic acid [Compound 17] | 23.01 | – | –
N-(3-(4-ethylpiperazin-1-yl)propyl)-1-(5-(2-oxopyrrolidin-1-yl)-1,3,4-thiadiazol-2-yl)piperidine-3-carboxamide [Compound 30] | 1.3 | – | –
COc1cccc(-n2nc(C(=O)NC3CCCCCC3)c3ccccc3c2=O)c1 [Compound 9, N-cycloheptyl-3-(3-methoxyphenyl)-4-oxo-3,4-dihydrophthalazine-1-carboxamide] | 23.33 | – | –
2-(1-isobutyl-5,5-dimethyl-3-(naphthalen-1-yl)-2-oxoimidazolidin-4-yl)-4-(naphthalen-1-yl)-1,2,4-oxadiazolidine-3,5-dione [Compound 16] | 33.28 | – | –
O=S(=O)(c1ccc(-c2csc(N3N=C(c4cccs4)CC3c3ccc(F)cc3)n2)cc1)N1CCCCC1 (stereo not drawn) [Compound 12, 2-(5-(4-fluorophenyl)-3-(thiophen-2-yl)-4,5-dihydro-1H-pyrazol-1-yl)-4-(4-(piperidin-1-ylsulfonyl)phenyl)thiazole] | 85.17 | – | 85.2
O=C(O)CCCNc1cc(N2CCCCCC2)c2noc3c2c1C(=O)c1ccccc1-3 [Compound 27, 4-((3-(azepan-1-yl)-6-oxo-6H-anthra[1,9-cd]isoxazol-5-yl)amino)butanoic acid] | 82.53 | – | 82.5
N-(4-((2-(benzo[d][1,3]dioxol-5-yl)-1,3-dioxoisoindolin-5-yl)oxy)phenyl)-1-oxo-4-phenyl-1H-isochromene-3-carboxamide [Compound 20] | 28.87 | – | –
Cc1cccc(-c2nc3nc(C)cc(Nc4ccc(CC(=O)O)cc4)n3n2)c1 [Compound 15, 2-(4-((5-methyl-2-(m-tolyl)-[1,2,4]triazolo[1,5-a]pyrimidin-7-yl)amino)phenyl)acetic acid] | 17.36 | – | –
3,3'-(ethane-1,2-diyl)bis(2-(((7-chloro-4-oxo-4H-pyrido[1,2-a]pyrimidin-2-yl)methyl)thio)quinazolin-4(3H)-one) [Compound 35] | 48.66 | – | –
COC(=O)CSc1ncn(-c2nc(N3CCCCC3)nc(N3CCCCC3)n2)n1 [Compound 19, methyl 2-((1-(4,6-di(piperidin-1-yl)-1,3,5-triazin-2-yl)-1H-1,2,4-triazol-3-yl)thio)acetate] | 10.28 | – | –
(5,7-dimethyl-6-(3-methylbenzyl)pyrazolo[1,5-a]pyrimidin-3-yl)(4-(2,5-dimethylphenyl)piperazin-1-yl)methanone [Compound 6] | 8.61 | – | –

Molecule | Inhibition Activity (DENV4 NS2B-NS3pro [1]) [%] | Inhibition mode (DENV4 NS2B-NS3pro [2]) | Inhibition (DENV4 NS2B-NS3pro [1]) [%]
N-(3-(piperidin-1-yl)propyl)-1-(6-(p-tolyl)imidazo[2,1-b][1,3,4]thiadiazol-2-yl)piperidine-3-carboxamide [Compound 8] | 33.48 | – | –
2-((4aR,5R,5aR,8aR,9S)-2,6,8-trioxo-3,10-diphenyl-2,3,4a,5,5a,6,8a,9,9a,10-decahydro-5,9-methanothiazolo[5',4':5,6]thiopyrano[2,3-f]isoindol-7(8H)-yl)acetic acid [Compound 34] | 39.67 | – | –
O=C(NCCN1CCCCC1)c1cccc(Nc2ccc(-c3cccc(F)c3)nn2)c1 [Compound 29, 3-((6-(3-fluorophenyl)pyridazin-3-yl)amino)-N-(2-(piperidin-1-yl)ethyl)benzamide] | 66.55 | – | 66.6
N-(1,5-dimethyl-3-oxo-2-phenyl-2,3-dihydro-1H-pyrazol-4-yl)-2-((5,9-dimethyl-[1,2,4]triazolo[4,3-a]quinolin-1-yl)thio)acetamide [Compound 26] | 28.11 | – | –
Cc1nn(-c2ccccc2)c2c1nc(CCC(=O)NCCN1CCN(C)CC1)c(=O)n2C [Compound 24, 3-(3,7-dimethyl-6-oxo-1-phenyl-6,7-dihydro-1H-pyrazolo[3,4-b]pyrazin-5-yl)-N-(2-(4-methylpiperazin-1-yl)ethyl)propanamide] | 29.46 | – | –
4-(2,6-bis(3-hydroxyphenyl)-1,3,5,7-tetraoxo-1,2,3,5,6,7-hexahydropyrrolo[3,4-f]isoindole-4-carbonyl)benzoic acid [Compound 1] | 15.05 | – | –
2-(3-fluorophenyl)-7-((2-(3-fluorophenyl)-4-oxo-4H-benzo[d][1,3]oxazin-6-yl)methyl)-4H-benzo[d][1,3]oxazin-4-one [Compound 36] | 34.33 | – | –
1-(4-(2,5-dimethylphenyl)piperazin-1-yl)-4-(10-methylbis([1,2,4]triazolo)[4,3-a:1',5'-c]quinazolin-3-yl)butan-1-one [Compound 3] | 2.61 | – | –
O=C(Nc1ccc(Br)cc1C(=O)c1ccccc1)c1cccc(Nc2nc(-c3ccccc3)c3cc(Br)ccc3n2)c1 [Compound 7, N-(2-benzoyl-4-bromophenyl)-3-((6-bromo-4-phenylquinazolin-2-yl)amino)benzamide] | 21.31 | – | –
N-cycloheptyl-2,5-dimethyl-4-(4-(pyridin-2-yl)piperazin-1-yl)thieno[2,3-d]pyrimidine-6-carboxamide [Compound 28] | 32.84 | – | –
C(=C\CSc1nnc(-c2ccccc2)c(-c2ccccc2)n1)/CSc1nnc(-c2ccccc2)c(-c2ccccc2)n1 [Compound 33, (E)-1,4-bis((5,6-diphenyl-1,2,4-triazin-3-yl)thio)but-2-ene] | 40.52 | – | –
N2,N2-dimethyl-6-(((4-methyl-5-((2-methyl-5-nitro-1H-imidazol-1-yl)methyl)-4H-1,2,4-triazol-3-yl)thio)methyl)-1,3,5-triazine-2,4-diamine [Compound 31] | 6.49 | – | –
Cc1nnc2c(Nc3cccc(C(=O)O)c3)nc3ccc(C(=O)c4ccccc4)cc3n12 [Compound 5, 3-((8-benzoyl-1-methyl-[1,2,4]triazolo[4,3-a]quinoxalin-4-yl)amino)benzoic acid] | 58.83 | – | 58.8
5-(5,6-dibromo-1,3-dioxohexahydro-1H-4,7-methanoisoindol-2(3H)-yl)-2-morpholinobenzoic acid [Compound 13] | 5.55 | – | –
Nc1nonc1-c1nc2ccccc2n1Cc1ccc(Cn2c(-c3nonc3N)nc3ccccc32)cc1 [Compound 25, 4,4'-(1,1'-(1,4-phenylenebis(methylene))bis(1H-benzo[d]imidazole-2,1-diyl))bis(1,2,5-oxadiazol-3-amine)] | 36.45 | – | –
O=C1c2ccc(-n3c(=O)c4cc5c(=O)n(-c6ccc7c(c6)C(=O)N(c6ccccc6)C7=O)c(=O)c5cc4c3=O)cc2C(=O)N1c1ccccc1 [Compound 4, 2,6-bis(1,3-dioxo-2-phenylisoindolin-5-yl)pyrrolo[3,4-f]isoindole-1,3,5,7(2H,6H)-tetraone] | 4.64 | – | –
4-((4aR,5R,5aR,8aR,9S)-10-(4-(tert-butyl)phenyl)-2,6,8-trioxo-2,3,4a,5,5a,6,8a,9,9a,10-decahydro-5,9-methanothiazolo[5',4':5,6]thiopyrano[2,3-f]isoindol-7(8H)-yl)butanoic acid [Compound 11] | 12.46 | – | –
